Measured values from US10697027B2, “Biological detection method for dioxins in serum, and diagnostic use therefor in metabolic syndrome and related conditions” (priority 2010, dated 2020).

Assays:
[1] = test system: HePa1c1c7 cell line expressing pCYP1A1-luc stably; assay: Response test with the transformed cell line expressing the recombinant reporter gene (luciferase assay); format: cell-based, mouse; conditions: for luciferase activity over the treatment time: treatment time 4, 8 (or 24) hours
Procedure: The cell line stably expressing pCYP1A1-luc constructed in Example <1-2> was distributed in 60 mm culture dish at the density of 1×10^5 cells, followed by culture for 48 hours. Upon completion of the culture, the medium was replaced with DMEM supplemented with 0.5% charcoal-stripped FBS but not supplemented with phenol red, and indole-3-carbinol was treated thereto at the concentrations of 0, 0.01, 0.1, 1, 10, and 100 μM for 4, 8, or 24 hours. Then, the cells were collected, followed by luciferase assay.
The cell line stably expressing pCYP1A1-luc constructed in Example <1-2> was distributed in 60 mm culture dish at the density of 2×10^5 cells, followed by culture for 24 hours. Upon completion of the culture, the medium was replaced with DMEM supplemented with 0.5% charcoal-stipped FBS but not supplemented with phenol red, and 2,3,7,8-tetrachlorodibenzo-p-dioxin (TCDD) was treated thereto at the concentrations of 0, 0.1, 1, 10, 100, and 1000 pM for 4, or 8 hours. Then, the cells were collected, followed by luciferase assay.

[2] = mouse treated with TCDD; cited from earlier work

Row | Compound | luciferase activity compared with control not treated with TCDD ([1]; 10~1000 pM, treated for 4 or 8 hours) | luciferase activity over the treatment time [1] | ATP synthesis [2] | ubiquinone (CoQ) in the liver [2] | luciferase activity compared with non-treated control group ([1]; 0.001~10 μM, treated for 4, 8 or 24 hours) | luciferase activity increase ([1]; concentration of 100 μM, treated for 4, 8 or 24 hours)
1 | Clc1cc2c(cc1Cl)Oc1cc(Cl)c(Cl)cc1O2 [TCDD, 2,3,7,8-tetrachlorodibenzo-p-dioxin] | significantly increased | increased over the treatment time, which was not so significant | suppressed | reduced | – | –
2 | OCc1c[nH]c2ccccc12 [indol-3-carbinol, indole-3-carbinol] | – | significant difference over the time was not detected | – | – | increased dose-dependently | at least 3 times
